According to patent publication US20120283269A1, “Method and Compositions for Suppression of Aging” (HEALTH RESEARCH INC., priority 2009, published 2012):
“Also recorded” adds a separate entry of the source.

Tests used:
Format in all cases: cell-based, human
[1] = system: HT-p21-9 cells; experiment: Senescent morphology and beta-Gal staining of HT-p21-9 cells (IPTG-induced p21); conditions: for cell divisions / arrest in the presence of nutlin-3a alone: nutlin-3a (10 μM), low cell density
Description: FIG. 1. Nutlin-3a converted senescence into quiescence. a. […] Cells were stained for beta-Gal and photographed (original magnification ×400). Bar scale—50 μm. b. […] Then cells were cultured in fresh medium until colonies become visible. Dishes were stained with crystal violet and photographed on day 4 (control) or on day 9 (IPTG- and nutlin-3a-treated).c. […] Before wash. Live HT-p21-9 cells (expressing GFP for better visualization of live cells) were photographed (original magnification ×100) under blue light. 3 d wash. Three days after drug removal. 9 d wash. Nine days after drug removal, cells were stained with crystal violet and photographed. d. Nutlin-3a dose response. […] After 3 days, the plates were washed and cells were incubated for an additional 9 days in fresh medium, stained with crystal violet and photographed. e. Colonies per dish. […] After 3 days, the plates were washed and cells were incubated for an additional 9 days in fresh medium. Colonies were counted and results are shown as percent of control (IPTG alone). f. Cells per dish. As in panel e. Cells were trypsinized and counted. Results are shown as percent of control (IPTG alone).
FIG. 5. Senescent versus quiescent morphology. […] Live cells, visualized with GFP (×100). In control, cells underwent 3 divisions, forming micro-colony.
(§1) Cell lines and reagents. HT-p21-9 and HT-p21-a cells are derivatives of HT1080 human fibrosarcoma cells, where p21 expression can be turned on or off using isopropyl-thio-galactosidase (IPTG) (7, 16, 28, 29, 36). […] HT-p16 cells are derivatives of HT1080 cells in which p16 expression can be turned on or off using IPTG (16, 36). WI-38-Tert, WI-38 are fibroblasts immortalized by telomerase. HT-p21-GSE56 cells: p53 inhibiting peptide GSE56 (18) was introduced into HT1080 p21-9 cells via a retroviral vector LXSE (37). Cells were grown in high glucose DMEM with 10% FC2 serum. WI-38-tert cells were grown in low glucose DMEM with 10% FCS. Rapamycin was obtained from LC Laboratories (Woburn, Mass.). IPTG (final concentration of 50 μg/ml) and FC2 were obtained from Sigma-Aldrich (St. Louis, Mo.).
(§2) Beta-galactosidase staining Beta-gal staining was performed using Senescence-galactosidase staining kit (Cell Signaling Technology).

[2] = system: mTOR pathway; experiment: Immunoblot for mTOR pathway (p-S6, p-4E-BP1, cyclin D1) in HT-p21 cells
Description: FIG. 3. […] Immunoblot. […] Immunoblot. […] Immunoblot was performed as described in Methods. c. […] After 3 days, cells were washed and incubated in fresh medium w/o drugs for an additional 7 days. […] On days 2, 3, 4, and 5 cells were lysed and protein content per well was measured.
Cell lines and reagents. […] WI-38-Tert, WI-38 are fibroblasts immortalized by telomerase. […] Cells were grown in high glucose DMEM with 10% FC2 serum. WI-38-tert cells were grown in low glucose DMEM with 10% FCS. Rapamycin was obtained from LC Laboratories (Woburn, Mass.). IPTG (final concentration of 50 μg/ml) and FC2 were obtained from Sigma-Aldrich (St. Louis, Mo.).

[3] = system: WI-38-tert cells; experiment: Senescence / quiescence in WI-38-tert fibroblasts
Description: FIG. 4. […] HT-p21-a cells were treated with IPTG and infected with Ad-p53. After 3 days, cells were photographed (original magnification ×200): Upper panel. Under blue light to visualize cells expressing p53 (green cells). Lower panel. Under visible light to visualize all cells. Red arrows indicate cells lacking p53 expression. All of these cells show large, flat cell morphology. Green arrows indicate cells expressing p53. b-d. […] After 1 day, cells were lysed and immunoblot was performed as described in Methods for Example 1. c. […] Cells were then stained for beta-Gal activity and microphotographed. Scale bar—50 μm.d. […] Cells were then trypsinized and counted. […] Results are shown as percent of control.
FIG. 11. Effects of Ad-p21 and Ad-p53 on senescent morphology in WI-38-tert fibroblasts. WI-38-tert cells were infected with either p21-expressing adenovirus (Ad-p21) or p53-expressing adenovirus (Ad-p53) or both. After 3 days, cells were stained for beta-Gal.
as §1, §2

[4] = system: p53; experiment: Immunoblot for p53 and p21 in HT-p21-9 and HT-p21-GSE56 cells
Description: Control cells were left untreated (no IPTG). After 1 day, cells were lysed and immunoblot was performed. b. […] As a negative control, parental cells were treated with nutlin-3b (open squares).c-d. […] Control cells were left untreated (no IPTG). c. Morphology. After 3 days, cells were stained for beta-Gal. Scale bars—50 μm.d. Colony formation. After 3 days, cells were washed and incubated in fresh medium w/o drugs for an additional 9 days. Plates were stained with crystal violet and photographed. e. Proliferative potential (PP). After 3 days, HT-p21-GSE56 cells were washed and incubated in fresh medium w/o drugs. Cells were counted and results are shown as percent of IPTG alone.
as §1
Immunoblot analysis. Proteins were separated on 4-15% gradient Tris-HCl gels (Bio-Rad). The following antibodies were used: mouse anti-actin from Santa Cruz Biotechnology, rabbit anti-phospho-S6 (Ser240/244) and (Ser235/236), mouse anti-S6, mouse anti-phospho-p70 S6 kinase (Thr389), mouse anti-p21 and anti-p53, rabbit anti-phospho-4E-BP1 (Thr37/46) from Cell Signaling; mouse anti-4E-BP1 from Invitrogen, mouse anti-p53 (Ab-6) from Calbiochem.

[5] = system: HT-p21-a cells, HT-p16 cells; experiment: Preservation of proliferative potential in IPTG-treated HT-p21-a and HT-p16 cells, nutlin-3a versus nutlin-3b; conditions: IPTG-regulated p16- and p21-expressing cells
Source text: FIG. 7. […] Then medium was changed and cells were counted after 8 days. b. […] Then medium was changed and cells were counted after 5 days.
as §1

[6] = system: HT-p21-9 cells; experiment: Protein content per cell (cellular hypertrophy), IPTG-treated HT-p21-9 cells; conditions: days 2-5
Description: FIG. 3. […] Immunoblot. […] Immunoblot was performed as described in the methods for Example 1 below. b. Immunoblot. […] Immunoblot was performed as described in Methods. c. […] After 3 days, cells were washed and incubated in fresh medium w/o drugs for an additional 7 days. Cells were counted and are shown as percent of IPTG alone. d. […] Cells were treated with either IPTG alone (black bars) or IPTG plus rapamycin (white bars) or plus nutlin-3a (grey bars). On days 2, 3, 4, and 5 cells were lysed and protein content per well was measured. […] Cells were labeled with [^35S]methionine/cysteine as described in Methods for Example 1.

[7] = IPTG plus 10 μM nutlin-3a, 24 hr

COc1ccc(C2=N[C@@H](c3ccc(Cl)cc3)[C@@H](c3ccc(Cl)cc3)N2C(=O)N2CCNC(=O)C2)c(OC(C)C)c1 [nutlin-3a]
cell morphology and SA-beta-Gal staining ([1]; 10 μM nutlin-3a alone, 3 days): remained small, lean and SA-beta-Gal-negative
senescent morphology caused by IPTG ([1]; IPTG plus compound (10 μM nutlin-3a), 3 days): prevented the senescent morphology caused by IPTG; also recorded: suppressed senescence in IPTG-treated HT-p21-9 cells only
cytostatic effect of IPTG ([1]; IPTG plus nutlin-3a): did not abrogate the cytostatic effect of IPTG
cell divisions / arrest in the presence of nutlin-3a alone ([1]; 3 days): underwent one division and did not proliferate further
cell divisions / arrest in the presence of nutlin-3a alone ([1]; 3 days, listed as Nutlin-3a): arrested after one division with normal cell morphology
S6 phosphorylation [2, 7]: inhibited S6 phosphorylation
phosphorylation of 4E-BP1 [2, 7]: partially inhibited
cyclin D1 levels ([2]; IPTG plus nutlin-3a): normalized elevated levels of cyclin D1
mTOR pathway ([2]; presence or absence of IPTG, 18 hr): inhibited the mTOR pathway both in the presence and absence of IPTG
senescence induced by H2O2 ([3]; 10 μM nutlin-3a 3 days, washed, 3 more days, beta-Gal): suppressed senescence induced by H2O2
proliferative potential in H2O2-treated cells ([3]; 10 μM nutlin-3a 3 days, washed, 6 more days): partially preserved proliferative potential
type of arrest in WI-38-tert cells ([3]; compound alone): caused quiescence
induction of p21 by IPTG in HT-p21-GSE56 cells ([4]; 1 day): did not affect this induction
p53 levels in HT-p21-GSE56 cells ([4]; 1 day): did not affect p53 levels in HT-p21-GSE56 cells
p53 levels in HT-p21 cells ([4]; 1 day): induced p53 in HT-p21 cells
levels of p21 induced by IPTG ([4]; HT-p21 cells, IPTG plus compound): neither abrogated nor diminished the levels of p21; also recorded: did not prevent induction of p21 by IPTG
conversion of senescence into quiescence (preservation of proliferative potential) [5]: preservation of proliferative potential
protein content per cell [6]: decreased the protein content per cell
